According to patent US11059795B2, “Androgen receptor modulators and methods for their use” (ESSA Pharma, Inc., priority 2018, dated 2021):

Columns and labels:
[1] = target: T1, androgen receptor (AR) (Homo sapiens, UniProt P10275, T878A); test: Androgen-induced PSA (6.1 kb)-luciferase reporter assay in LNCaP cells; format: cell-based; settings: LNCaP cells transfected with PSA (6.1 kb)-luciferase reporter, R1881 1 nM, 24 h; read-out: PSA-Luc IC50 Range
T1 construct: LNCaP cells were transiently transfected with the PSA (6.1 kb)-luciferase reporter for 24 h; endogenous in cells; host or cells: LNCaP
T1 sequence (P10275 1-920 T878A): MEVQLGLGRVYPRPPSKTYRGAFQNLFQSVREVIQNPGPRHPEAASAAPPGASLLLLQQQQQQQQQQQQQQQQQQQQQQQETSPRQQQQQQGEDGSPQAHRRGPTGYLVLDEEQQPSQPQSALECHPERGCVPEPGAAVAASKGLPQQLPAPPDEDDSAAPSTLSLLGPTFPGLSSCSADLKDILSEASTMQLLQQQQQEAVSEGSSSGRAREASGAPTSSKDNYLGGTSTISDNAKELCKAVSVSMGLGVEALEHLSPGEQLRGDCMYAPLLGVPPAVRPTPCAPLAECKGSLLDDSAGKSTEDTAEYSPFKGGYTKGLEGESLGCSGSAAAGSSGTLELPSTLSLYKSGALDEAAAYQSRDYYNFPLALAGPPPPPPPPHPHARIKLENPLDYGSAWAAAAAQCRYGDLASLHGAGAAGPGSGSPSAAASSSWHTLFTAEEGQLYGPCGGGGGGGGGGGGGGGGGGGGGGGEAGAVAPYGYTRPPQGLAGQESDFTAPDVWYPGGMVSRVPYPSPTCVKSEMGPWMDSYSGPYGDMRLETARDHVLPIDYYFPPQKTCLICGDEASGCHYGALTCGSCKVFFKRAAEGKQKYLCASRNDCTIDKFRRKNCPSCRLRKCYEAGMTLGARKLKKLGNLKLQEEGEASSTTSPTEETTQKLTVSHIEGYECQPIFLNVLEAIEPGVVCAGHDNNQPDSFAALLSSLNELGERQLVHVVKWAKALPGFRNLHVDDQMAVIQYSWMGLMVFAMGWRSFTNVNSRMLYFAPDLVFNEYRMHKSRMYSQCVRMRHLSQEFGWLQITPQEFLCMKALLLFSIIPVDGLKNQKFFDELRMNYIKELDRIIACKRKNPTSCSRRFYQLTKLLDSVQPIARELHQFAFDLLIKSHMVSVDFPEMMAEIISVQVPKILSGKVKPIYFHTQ
Outline: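 Read-out is firefly luminescence (10 s) in LNCaP lysates, normalized to protein, from an ARE-containing PSA (6.1 kb)-luciferase reporter driven by androgen.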

[2] = Microsomal stability assay, mouse liver microsomes; format: in vitro ADME; settings: 1 μM compound, 0.5 mg/mL protein, 37° C.; for microsomal CLint at 1 μM: mouse, liver microsomes, pH 7.4, mouse liver microsomes, read-out: MLM +30/− NADPH: Clint (μL/min/mg protein)
Outline: (§1)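 Compound at 1 μM was incubated at 37° C with 0.5 mg/mL liver microsomes and 1 mM NADPH and/or 1 mM UDPGA (with alamethicin) in 100 mM potassium phosphate pH 7.4, 3 mM MgCl2. Samples were taken at 0, 15, 30 and 60 min and measured by LC/MS/MS. t½ came from compound loss relative to 0 min, and Clint was scaled with 45 mg microsomal protein/g liver.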

[3] = Microsomal stability assay, human liver microsomes; format: in vitro ADME; settings: 0.5 mg/mL protein, 37° C.; for microsomal CLint at 1 μM: pH 7.4, 1 μM compound, read-out: HLM +/− NADPH: Clint (μL/min/mg protein)
Outline: as §1

[4] = Hepatocyte stability assay, mouse hepatocytes; format: in vitro ADME; settings: 1 μM compound, 0.5 million cells/mL, 37° C.; for hepatocyte CLint at 1 μM: mouse, cryopreserved hepatocytes, read-out: MH +/− NADPH: Clint (μL/min/million cells)
From the text: The […] of in vitro intrinsic clearance (Clint) for drug candidates in the early discovery stage is common practice in the pharmaceutical industry. The Clint values of drug candidates can help to confirm whether metabolism is the main clearance pathway when it is compared with the total body clearance in vivo. Hepatocytes are among the routinely used in vitro systems for measuring clearance. Hepatocytes have been reported to retain most of the phase I and phase II metabolic activities, and therefore, it is a useful tool to estimate the intrinsic clearance for potential drug candidates.
Metabolic stability of testing compound were be evaluated using human and mouse hepatocytes and can also be use rat, mouse, or other animal hepatocytes to predict intrinsic clearance. Cryopreserved hepatocytes were removed from the liquid nitrogen tank and thawed in a 37° C. water bath. As soon as the cells pulled away from the vial wall, they were decanted into 48 ml of warm HT medium. Cells were centrifuged for four minutes at 420 rpm (50 g). After removing the supernatant, pellet was re-suspended in warm DMEM medium. Cell density was counted by a hemacytometer.
The assay was carried out in 96-well microtiter plates. Compounds were incubated for 0, 60, 120, and 180 minutes at 37° C. with hepatocytes. Reaction mixtures (50 μL) contained a final concentration of 1 μM test compound, 0.5 million cells/mL hepatocytes in the DMEM medium. At each of the time points (for example, 0, 1, 2, and 3 hours), 200 μL of quench solution (100% acetonitrile with 0.1% formic acid) with internal standard was transferred to each well. Midazolam was included as a positive control to verify assay performance. Plates were sealed and centrifuged at 4° C. for 15 minutes at 4000 rpm. The supernatant is transferred to fresh plates for LC/MS/MS analysis.
Summarized conditions (customizable): [Compound]=[…], Positive control: midazolam and/or naloxone, [Hepatocyte]=0.5 million cells/Ml, time=0, 60, 120, and 180 min, t=37° C.
All samples were analyzed on LC/MS/MS using an AB Sciex API 4000 instrument, coupled to a Shimadzu LC-20AD LC Pump system. Analytical samples were separated using a Waters Atlantis T3 dC18 reverse phase HPLC column (20 mm×2.1 mm) at a flow rate of 0.5 mL/min. The mobile phase consisted of 0.1% formic acid in water (solvent A) and 0.1% formic acid in 100% acetonitrile (solvent B).
The extent of metabolism was calculated as the disappearance of the test compound, compared to the 0-min control reaction incubations. Initial rates were calculated for the compound concentration and used to determine t½ values and subsequently, the intrinsic clearance, Clint. Clint=(0.693)(1/t½(min))(mL incubation/million cells)

IC50 [1] | microsomal CLint at 1 μM [2] | microsomal CLint at 1 μM [3] | hepatocyte CLint at 1 μM [4] | Compound | MLM +30/− NADPH: Clint (μL/min/mg protein) ([2]; mouse liver microsomes) | HLM +/− NADPH: Clint (μL/min/mg protein) ([3]; 1 μM compound) | MH +/− NADPH: Clint (μL/min/million cells) [4]
< 500 nM | < 12 µL/min/mg | < 12 µL/min/mg | 4 to 18 µL/min/1e6 cells | CC(C)(c1ccc(OCc2ccnc(NS(C)(=O)=O)c2)cc1)c1cc(Cl)c(OCCCl)c(C#N)c1 [Compound A195] | – | – | –
< 500 nM | ≥ 48 µL/min/mg | 12 to 48 µL/min/mg | ≥ 18 µL/min/1e6 cells | Cc1nc(N)cc(COc2ccc(C(C)(C)c3cc(Cl)c(OCCCl)c(C#N)c3)cc2)n1 [Compound A162] | – | – | –
500 to 2000 nM | ≥ 48 µL/min/mg | ≥ 48 µL/min/mg | 4 to 18 µL/min/1e6 cells | Cn1c(COc2ccc(C(C)(C)c3cc(Cl)c(OCCCl)c(C#N)c3)cc2)ccc1S(C)(=O)=O [Compound A193] | – | – | –
< 500 nM | 12 to 48 µL/min/mg | 12 to 48 µL/min/mg | ≥ 18 µL/min/1e6 cells | Cc1cc(C(C)(C)c2ccc(OCc3csc(S(C)(=O)=O)n3)cc2)cc(C#N)c1OCCCl [Compound A86] | – | – | –
500 to 2000 nM | 12 to 48 µL/min/mg | 12 to 48 µL/min/mg | ≥ 18 µL/min/1e6 cells | CC(C)(c1ccc(OCc2ocnc2S(C)(=O)=O)cc1)c1cc(Cl)c(OCC(O)CCl)c(Cl)c1 (centres unmarked) [Compound A117] | – | – | –
500 to 2000 nM | 12 to 48 µL/min/mg | 12 to 48 µL/min/mg | 4 to 18 µL/min/1e6 cells | CC(C)(c1ccc(OCc2ncc(S(C)(=O)=O)[nH]2)cc1)c1cc(Cl)c(OCCCl)c(C#N)c1 [Compound A94] | – | – | –
500 to 2000 nM | < 12 µL/min/mg | < 12 µL/min/mg | < 4 µL/min/1e6 cells | CC(Oc1ccc(C(C)(C)c2cc(Cl)c(OCCCl)c(C#N)c2)cc1)c1ccnc(NS(C)(=O)=O)n1 (centres unmarked) [Compound A98] | – | – | –
< 500 nM | ≥ 48 µL/min/mg | ≥ 48 µL/min/mg | 4 to 18 µL/min/1e6 cells | CSc1nc(C)c(COc2ccc(C(C)(C)c3cc(Cl)c(OCCCl)c(C#N)c3)cc2)o1 [Compound A119] | – | – | –
< 500 nM | ≥ 48 µL/min/mg | ≥ 48 µL/min/mg | ≥ 18 µL/min/1e6 cells | CC(C)(c1ccc(OCc2cnc(NS(C)(=O)=O)o2)cc1)c1cc(Cl)c(OCCCl)c(C#N)c1 [Compound A133] | – | – | –
< 500 nM | 12 to 48 µL/min/mg | 12 to 48 µL/min/mg | ≥ 18 µL/min/1e6 cells | COC(=O)Nc1nc(COc2ccc(C(C)(C)c3cc(Cl)c(OCCCl)c(C#N)c3)cc2)co1 [Compound A156] | – | – | –
500 to 2000 nM | < 12 µL/min/mg | < 12 µL/min/mg | 4 to 18 µL/min/1e6 cells | CC(C)(c1ccc(OCc2ccnc(C#N)n2)cc1)c1cc(Cl)c(OCCCl)c(C#N)c1 [Compound A200] | – | – | –
< 500 nM | < 12 µL/min/mg | < 12 µL/min/mg | < 4 µL/min/1e6 cells | CC(C)(c1ccc(OCc2coc(S(C)(=O)=O)c2)cc1)c1cc(Cl)c(OCCCl)c(C#N)c1 [Compound A208] | – | – | –
< 500 nM | ≥ 48 µL/min/mg | 12 to 48 µL/min/mg | 4 to 18 µL/min/1e6 cells | CC(C)(c1ccc(OCc2coc(N)n2)cc1)c1cc(Cl)c(OCCCl)c(C#N)c1 [Compound A155] | – | – | –
< 500 nM | 12 to 48 µL/min/mg | 12 to 48 µL/min/mg | ≥ 18 µL/min/1e6 cells | CC(C)(c1ccc(OCc2ocnc2S(C)(=O)=O)cc1)c1cc(Cl)c(OCC(Cl)CO)c(Cl)c1 (centres unmarked) [Compound A97] | – | – | –
> 2000 nM | ≥ 48 µL/min/mg | ≥ 48 µL/min/mg | ≥ 18 µL/min/1e6 cells | CC(C)(c1ccc(NC(=O)c2coc(S(C)(=O)=O)n2)cc1)c1cc(Cl)c(OCCCl)c(C#N)c1 [Compound A96] | – | – | –
< 500 nM | – | – | – | CC(C)(c1ccc(OCc2nccnc2NS(C)(=O)=O)cc1)c1cc(Cl)c(OCCCl)c(C#N)c1 [Compound A104] | * (* represents Cl in the range of ≥48 μL/min/mg protein) | ** (** represents Cl in the range of 12-48 μL/min/mg protein) | * (* represents Cl in the range of ≥18 μL/min/million cells)
< 500 nM | ≥ 48 µL/min/mg | ≥ 48 µL/min/mg | ≥ 18 µL/min/1e6 cells | CC(=O)Nc1nccc(COc2ccc(C(C)(C)c3cc(C)c(OCCCl)c(C#N)c3)cc2)n1 [Compound A100] | – | – | –
500 to 2000 nM | < 12 µL/min/mg | < 12 µL/min/mg | < 4 µL/min/1e6 cells | CC(C)S(=O)(=O)Nc1nc(COc2ccc(C(C)(C)c3cc(Cl)c(OCCCl)c(C#N)c3)cc2)co1 [Compound A132] | – | – | –
500 to 2000 nM | < 12 µL/min/mg | 12 to 48 µL/min/mg | < 4 µL/min/1e6 cells | CC(C)(c1ccc(OCc2coc(NS(C)(=O)=O)n2)cc1)c1cc(Cl)c(OCCCl)c(C#N)c1 [Compound A130] | – | – | –
500 to 2000 nM | ≥ 48 µL/min/mg | < 12 µL/min/mg | ≥ 18 µL/min/1e6 cells | CC(C)(c1ccc(OCc2nc(NS(C)(=O)=O)nc3c2CCC3)cc1)c1cc(Cl)c(OCCCl)c(C#N)c1 [Compound A202] | – | – | –
< 500 nM | < 12 µL/min/mg | < 12 µL/min/mg | < 4 µL/min/1e6 cells | CC(C)(c1ccc(OCc2coc(S(N)(=O)=O)c2)cc1)c1cc(Cl)c(OCCCl)c(C#N)c1 [Compound A207] | – | – | –
< 500 nM | < 12 µL/min/mg | 12 to 48 µL/min/mg | < 4 µL/min/1e6 cells | CC(C)(c1ccc(OCc2ccnnc2NS(C)(=O)=O)cc1)c1cc(Cl)c(OCCCl)c(C#N)c1 [Compound A102] | – | – | –
< 500 nM | < 12 µL/min/mg | < 12 µL/min/mg | 4 to 18 µL/min/1e6 cells | CC(C)(c1ccc(OCc2ccc(S(C)(=O)=O)o2)cc1)c1cc(Cl)c(OCCCl)c(C#N)c1 [Compound A168, 3-chloro-2-(2-chloroethoxy)-5-(2-(4-((5-(methylsulfonyl)furan-2-yl)methoxy)phenyl)propan-2-yl)benzonitrile] | – | – | –
